Data set [1] has as its target T1, recombinant human secreted phospholipase A2 (Homo sapiens, UniProt P14555).
T1 sequence (P14555 21-144): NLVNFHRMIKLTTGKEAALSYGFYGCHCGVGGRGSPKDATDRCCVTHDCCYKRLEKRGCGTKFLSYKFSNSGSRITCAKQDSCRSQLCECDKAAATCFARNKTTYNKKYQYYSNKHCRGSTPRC
Description: chromogenic assay of recombinant human secreted phospholipase A2 inhibition. Type of data set: biochemical. The conditions noted are these: diheptanoyl thio-PC substrate, pH 7.5, 40° C. 30 minutes, absorbance at 405 nanometers, triplicate. The source says:
The following chromogenic assay procedure was used to identify and evaluate inhibitors of recombinant human secreted phospholipase A2. The assay described herein has been adapted for high volume screening using 96 well microtiter plates. A general description of this assay method is found in the article, “Analysis of Human Synovial Fluid Phospholipase A2 on Short Chain Phosphatidylcholine-Mixed Micelles: Development of a Spectrophotometric Assay Suitable for a Microtiterplate Reader”, by Laure J. Reynolds, Lori L. Hughes, and Edward A. Dennis, Analytical Biochemistry, 204, pp. 190–197, 1992 (the disclosure of which is incorporated herein by reference): […]
A measured volume of racemic dipheptanoyl thio PC supplied in chloroform at a concentration of 100 mg/ml is taken to dryness and redissolved in 10 millimolar TRITON X-100™ nonionic detergent aqueous solution. […]
5. Read absorbance of wells at 405 nanometers with an automatic plate reader.
Tests were done in triplicate. […] Compounds initially found to be active were re-assayed to confirm their activity and, if sufficiently active, IC50 values were determined. […] In all cases, % inhibition measured at 405 nanometers generated by enzyme reactions containing inhibitors relative to the uninhibited control reactions was determined. […]

Structures can show the parent of a compound that is named as a salt.

With `NC(=O)c1cccc2c1c1c(OCC(=O)O)c3ccccc3cc1n2Cc1ccccc1` [Example 1, (5-Benzyl-1-carbamoyl-5H-benzo[b]carbazol-11-yloxy)-acetic acid, sodium salt], the concentration for half-maximal inhibition (IC50) in data set [1] worked out at 38.6 µM.

Turning to `NC(=O)c1cccc2c1c1c(OCC(=O)O)c3c(cc1n2Cc1ccccc1)CCCC3` [Example 2, (5-Benzyl-1-carbamoyl-7,8,9,10-tetrahydro-5H-benzo[b]carbazol-11-yloxy)-acetic acid, sodium salt], the concentration for half-maximal inhibition (IC50) in data set [1] came to 410 µM.

Take `NC(=O)c1c2ccsc2nc2c1c1ccccc1n2Cc1ccccc1` [Example 3, 9-Benzyl-9H-1-thia-9,10-diaza-cyclopenta[b]fluorene-4-carboxylic acid amide]: the melting point lay in the range of 242 to 245 °C.

For the origin of these results see patent US6992100B2, “sPLA2 inhibitors” (Eli Lilly and Company, priority 2001, dated 2006).
